Test results from patent US20250084095A1, “Aminopyrimidine Derivatives as Cyclin-Dependent Kinase Inhibitors” (Accutar Biotechnology Inc., priority 2023, published 2025).
Like-named read-outs stand apart in the source and are kept apart here.

Tests used:
[1] = system: Phospho-Rb (Ser807/811) in SW1573-CDK4 KO cells; experiment: Phospho-Rb expression inhibition in SW1573-CDK4 KO cells quantified by in cell Western; assay type: cell-based; conditions: Homo sapiens, 24 hours, read-out: SW1573 CDK4 KO pRb IC50
How it was run: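 CRISPR CDK4- or CDK6-knockout SW1573 clones were seeded at 20,000 cells/well overnight, then exposed to compound (0.1% DMSO from 1000× stocks) for 24 h at 37° C in 10% FBS medium. Fixed, methanol-permeabilized cells were co-stained for phospho-Rb Ser807/811 and total Rb, with near-infrared in-cell Western read-out.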

22RV1 cells = experiment: Cell growth inhibition of 22RV1 cells (CellTiter-Glo); assay type: cell-based; conditions: for GI50: Homo sapiens, 22Rv1, 120 h, 5 days, CellTiter-Glo
How it was run: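 22RV1 cells were plated in RPMI1640 with FBS (20% in one version, 10% in the other) and dosed next day at various concentrations from DMSO stocks. After 5 days at 37 °C, viability was measured by CellTiter-Glo luminescence.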

CDK9-CYCLIN T1 = CDK9-CYCLIN T1 (Homo sapiens (Human), UniProt P50750); experiment: CDK protein kinase inhibition by the ADP-Glo Assay, CDK9-CYCLIN T1; assay type: biochemical; conditions: 1000 μM ATP
Experimental: (§1) This ADP-Glo assay measures ADP formed from a kinase reaction and indirectly quantifies the phosphorylation of peptide substrates by the CDK/cyclin protein complexes. The typical assays were carried out in Nanosyn by combining kinase/cyclin complexes, substrates, compounds, and cofactors (ATP and Mg2+) in a well of a 384-well microtiter plate (Coming 3824) and incubating at 22° C. (Table 4). At the end of the incubation, the reaction is quenched, and conversion is detected by luminescence using the Promega ADP-Glo™ Kinase Assay kit (catalog #V9102). Briefly, 5 μL of 1× enzyme and substrate buffer (or control), 50 nL of 100× compound, and 0.5 μL of 10 mM ATP were sequentially added to a well of a 384-well plate.
(§2) The Final assay buffer mixture contains: 100 mM HEPES, pH 7.5, 0.1% BSA, 0.01% Triton X-100, 1 mM DTT, 5 mM MgCl2, 10 μM Sodium Orthovanadate, 10 μM Beta-Glycerophosphate, 1000 μM Ultra Pure ATP (provided in the Promega ADP-Glo™ Kinase Assay kit), and 1% DMSO (from compound).
(§3) Upon completion, 5 μL of the ADP Glo reagent was added to each well and the plate was further incubated at room temperature for 45 min. 10 μL of the Kinase Detection Reagent was subsequently added to each well. After 10 min of incubation, the plate was read and analyzed on the BioTek Synergy microplate reader using BioTek Gen5 software.

CDK1-CYCLIN B = CDK1-CYCLIN B (Homo sapiens (Human), UniProt P06493); experiment: CDK protein kinase inhibition by the ADP-Glo Assay, CDK1-CYCLIN B; assay type: biochemical; conditions: 1000 μM ATP
Experimental: as §1, §2, §3

CDK9-CYCLIN T1, sequence (P50750 whole entry): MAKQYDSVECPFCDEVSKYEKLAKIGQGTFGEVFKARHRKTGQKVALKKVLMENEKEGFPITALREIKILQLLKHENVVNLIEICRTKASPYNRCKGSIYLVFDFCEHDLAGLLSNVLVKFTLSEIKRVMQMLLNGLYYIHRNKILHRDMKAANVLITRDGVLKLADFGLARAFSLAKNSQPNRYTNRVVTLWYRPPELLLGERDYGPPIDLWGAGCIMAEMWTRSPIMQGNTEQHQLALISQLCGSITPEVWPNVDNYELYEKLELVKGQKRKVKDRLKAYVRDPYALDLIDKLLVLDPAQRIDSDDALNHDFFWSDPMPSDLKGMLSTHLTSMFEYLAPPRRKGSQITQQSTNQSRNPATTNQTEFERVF
CDK9-CYCLIN T1, sequence (O60563 whole entry partner): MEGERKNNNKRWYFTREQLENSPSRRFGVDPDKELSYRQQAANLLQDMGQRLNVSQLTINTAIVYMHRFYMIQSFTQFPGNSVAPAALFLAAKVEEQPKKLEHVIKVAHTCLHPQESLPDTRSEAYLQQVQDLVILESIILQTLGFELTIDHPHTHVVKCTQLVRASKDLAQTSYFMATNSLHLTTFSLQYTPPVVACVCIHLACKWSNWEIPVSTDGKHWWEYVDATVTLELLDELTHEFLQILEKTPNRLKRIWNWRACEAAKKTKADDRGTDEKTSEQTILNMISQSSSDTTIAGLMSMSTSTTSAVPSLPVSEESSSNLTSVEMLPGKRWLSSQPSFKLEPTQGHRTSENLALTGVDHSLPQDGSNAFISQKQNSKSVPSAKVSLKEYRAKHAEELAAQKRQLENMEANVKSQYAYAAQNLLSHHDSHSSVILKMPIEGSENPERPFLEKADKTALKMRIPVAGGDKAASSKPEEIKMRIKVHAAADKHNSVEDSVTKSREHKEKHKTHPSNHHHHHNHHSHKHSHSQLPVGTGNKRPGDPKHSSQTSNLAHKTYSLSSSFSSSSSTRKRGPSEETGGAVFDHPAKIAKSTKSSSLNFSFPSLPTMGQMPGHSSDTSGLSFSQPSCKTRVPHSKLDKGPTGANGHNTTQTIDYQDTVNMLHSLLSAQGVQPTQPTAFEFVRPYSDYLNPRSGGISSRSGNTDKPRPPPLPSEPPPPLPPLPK
CDK1-CYCLIN B, sequence (P06493 whole entry): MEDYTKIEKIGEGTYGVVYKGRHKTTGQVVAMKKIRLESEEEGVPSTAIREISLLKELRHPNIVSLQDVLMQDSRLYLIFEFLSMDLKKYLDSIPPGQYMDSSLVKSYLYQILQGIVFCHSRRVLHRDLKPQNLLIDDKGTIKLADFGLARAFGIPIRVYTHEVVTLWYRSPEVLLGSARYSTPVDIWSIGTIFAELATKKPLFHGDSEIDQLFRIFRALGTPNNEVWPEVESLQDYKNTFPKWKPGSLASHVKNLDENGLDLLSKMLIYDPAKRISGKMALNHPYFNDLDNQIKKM
CDK1-CYCLIN B, sequence (P14635 whole entry partner): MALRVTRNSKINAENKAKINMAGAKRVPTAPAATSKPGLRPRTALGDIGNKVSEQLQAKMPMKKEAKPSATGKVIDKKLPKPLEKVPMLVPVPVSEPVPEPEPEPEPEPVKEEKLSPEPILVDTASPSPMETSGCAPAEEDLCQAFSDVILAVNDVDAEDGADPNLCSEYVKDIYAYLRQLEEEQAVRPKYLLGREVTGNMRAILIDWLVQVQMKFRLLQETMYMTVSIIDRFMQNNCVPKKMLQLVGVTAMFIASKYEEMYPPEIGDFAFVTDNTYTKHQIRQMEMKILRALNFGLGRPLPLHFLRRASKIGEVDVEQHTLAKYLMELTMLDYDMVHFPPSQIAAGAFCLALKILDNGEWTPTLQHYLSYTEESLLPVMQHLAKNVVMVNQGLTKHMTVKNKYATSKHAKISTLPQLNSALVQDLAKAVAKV

- IC50 [1]: > 1000 nM
- GI50 (22RV1 cells; read-out: 22RV1 Cell Growh GI50): ≤ 120 nM
- GI50 (22RV1 cells; read-out: 22RVI, GI50): 144 nM
- IC50 (CDK9-CYCLIN T1): 4880 nM
- IC50 (CDK1-CYCLIN B): 26200 nM
Compound: CC(C)n1c(C(C)(C)O)nc2c(F)cc(-c3nc(N[C@@H]4C[C@H]5CO[C@H](O5)[C@H]4O)ncc3Cl)cc21 [Compound 1, (1S,3R,4S,5R)-3-((5-chloro-4-(4-fluoro-2-(2-hydroxypropan-2-yl)-1-isopropyl-1H-benzo[d]imidazol-6-yl)pyrimidin-2-yl)amino)-6,8-dioxabicyclo[3.2.1]octan-4-ol]
- Potency in 22RV1 cell growth inhibition compared with the reference compound (22RV1 cells; versus PF-07220060): slightly higher potency
